From US8236826B2, “Diarylether derivatives as antitumor agents” (Otsuka Pharmaceutical Co., Ltd., priority 2005, dated 2012)

Experiments:
[1] = tested on: human hepatic cancer cells (HuH-7); assay: Anti-proliferative effect on human hepatic cancer cells, sulforhodamine B method; assay type: cell-based; details: 120 h, HuH-7 cells, cultured 5 days with compound
Description: (§1) Anti-proliferative effect of test compounds on human hepatic cancer cells (HuH-7), human lung cancer cells (EBC-1), human colorectal cancer cells (HCT116), human prostatic cancer cells (22Rv1), human pancreatic cancer cells (MIA PaCa-2), human stomach cancer cells (MKN45), human breast cancer cells (ZR-75-1) was checked by a sulforhodamine B method in accordance with Skehan P et al. (J. Natl. Cancer Inst. 1990 Jul. 4; 82(13): 1107-12). Explanation will be made taking HuH-7 cells as an example.
(§2) HuH-7 cells were seeded on DMEM medium (Dulbeco's modified Eagle Medium) containing 10% fetal bovine serum of a 96-well microplate and cultured at 37° C. for 24 hours in the presence of 5% carbon dioxide gas (CO2). Thereafter, a test compound was added to the wells and the cells were cultured for a further 5 days. […]
(§3) To each of the wells, a 1% aqueous acetic acid solution containing 0.4% sulforhodamine B was added and the wells were allowed to stand still at room temperature for 20 to 30 minutes. […] Subsequently, OD (optical density) was measured at a measurement wavelength of 492 nm and a reference wavelength of 690 nm to obtain the difference (A) in OD thus measured. Furthermore, the OD of a control well (containing no cells) was measured at a measurement wavelength of 492 nm and a reference wavelength of 690 nm to obtain the difference (B) in OD. […]

[2] = tested on: human lung cancer cells (EBC-1); assay: Anti-proliferative effect on human lung cancer cells, sulforhodamine B method; assay type: cell-based; details: EBC-1 cells
Description: as §1, §2, §3

[3] = tested on: human colorectal cancer cells (HCT116); assay: Anti-proliferative effect on human colorectal cancer cells, sulforhodamine B method; assay type: cell-based; details: HCT-116
Description: as §1, §2, §3

[4] = tested on: human prostatic cancer cells (22Rv1); assay: Anti-proliferative effect on human prostatic cancer cells, sulforhodamine B method; assay type: cell-based; details: 22Rv1 cells
Description: as §1, §2, §3

[5] = tested on: human pancreatic cancer cells (MIA PaCa-2); assay: Anti-proliferative effect on human pancreatic cancer cells, sulforhodamine B method; assay type: cell-based; details: MIA PaCa-2 cells
Description: as §1, §2, §3

[6] = tested on: human stomach cancer cells (MKN45); assay: Anti-proliferative effect on human stomach cancer cells, sulforhodamine B method; assay type: cell-based; details: MKN-45
Description: as §1, §2, §3

[7] = tested on: human breast cancer cells (ZR-75-1); assay: Anti-proliferative effect on human breast cancer cells, sulforhodamine B method; assay type: cell-based; details: ZR-75-1 cells
Description: as §1, §2, §3

[8] = tested on: human chronic myelogenous leukemia cells (KU812); assay: Anti-proliferative effect on human chronic myelogenous leukemia cells, MTT assay; assay type: cell-based; details: 120 h, cultured 5 days with compound
Description: (§4) Anti-proliferative effect of test compounds on human chronic myelogenous leukemia cells (KU812) was determined by an MTT assay in accordance with the method described in Singh A K et al. (Cancer Lett. 1996 Oct. 1; 107(1): 109-15). To describe more specifically, KU812 cells were seeded on RPMI 1640 medium containing 10% fetal bovine serum of a 96-well microplate, cultured at 37° C. for 24 hours in the presence of a 5% carbon dioxide gas (CO2). Thereafter, a test compound was added to the wells and the cells were cultured for a further 5 days. After the incubation, 10 μl of 5 mg/mL MTT ([…]) was added to the wells. After the cells were cultured for 4 hours, 100 μl of 0.01N HCl containing 10% SDS (sodium dodecyl sulfate) was added to the wells, which was further cultured overnight. Subsequently, OD was measured at a measurement wavelength of 570 nm and a reference wavelength of 690 nm to obtain the difference (A) in OD. Furthermore, OD of a control well (containing no cells) was measured at a measurement wavelength of 570 nm and a reference wavelength of 690 nm to obtain the difference (B) in OD. The difference (A−B) was regarded as the cell proliferation activity of each of the wells. […]

[9] = tested on: human renal cancer cells (Caki-2); assay: Anti-proliferative effect on human renal cancer cells, sulforhodamine B method; assay type: cell-based; details: Caki-2 cells
[10] = tested on: human multiple myeloma cells (IM-9); assay: Anti-proliferative effect on human multiple myeloma cells, MTT assay; assay type: cell-based; details: IM-9 cells
Description: [The source words this procedure for another cell line and reports this cell line under the same test.] as §4

[11] = tested on: human acute myelogenous leukemia cells (KG-1); assay: Anti-proliferative effect on human acute myelogenous leukemia cells, MTT assay; assay type: cell-based; details: KG-1 cells
Description: [The source words this procedure for another cell line and reports this cell line under the same test.] as §4

[12] = tested on: Human hepatic cancer cells HuH-7; assay: Anti-tumor effect on HuH-7 cells transplanted into SCID mice; assay type: in vivo; details: 100 mg/kg/day orally once a day for 9 days, HuH-7 tumor in SCID mice
Description: Pharmacological Test 2 Anti-Cancer Effect […] on Hepatic Cancer Cells HuH-7
Human hepatic cancer cells HuH-7 were transplanted into SCID mice (a group of 6 female mice). Anti-tumor effect of test compounds according to the present invention was checked. To describe more specifically, the cancer cells were cultured in advance and a cell suspension solution containing the cancer cells in a concentration of 2.5×10^7 cells/mL was prepared. Then, 0.2 mL of the cell suspension solution was injected into the right axillary region of each of the mice to transplant the cancer cells. In this manner, cancer-bearing mice were prepared. […] Next day after completion of administration, the volume of a tumor was measured. The ratio in volume of a tumor at the time of grouping relative to that measured next day after completion of administration was calculated to obtain a relative tumor volume of each group. Then, the ratio (T/C %) in relative tumor volume of […] (administrated with a test compound) was calculated and used as an index of the effect. Relative tumor volume=tumor volume measured on the next day of completion of administration/tumor volume measured at the time of grouping (T/C %)=(an average value of relative tumor volume of test compound administration group)/(an average value of relative tumor volume of a control group)×100

[13] = tested on: human Burkitt's lymphoma cells (Daudi); assay: Cell proliferation suppression activity on human Burkitt's lymphoma cells, MTT assay; assay type: cell-based; details: applied dose 10 nM
Description: [The source words this procedure for another cell line and reports this cell line under the same test.] as §4

[14] = tested on: human lymphoma cells (U937); assay: Cell proliferation suppression activity on human lymphoma cells, MTT assay; assay type: cell-based; details: applied dose 10 nM
Description: [The source words this procedure for another cell line and reports this cell line under the same test.] as §4

O=C(Nc1ccc(Oc2ccc(CCC(=O)N3CCN(Cc4ccc5c(c4)OCO5)CC3)cc2)nc1)c1ccc(C(F)(F)F)cc1 [Example 1039, N-(6-{4-[3-(4-piperonylpiperazin-1-yl)-3-oxopropyl]phenoxy}pyridin-3-yl)-4-trifluoromethylbenzamide]
IC50 [1]: < 100 nM
IC50 [2]: < 100 nM
IC50 [3]: < 100 nM
IC50 [4]: < 100 nM
IC50 [5]: < 100 nM
IC50 [6]: < 100 nM
IC50 [7]: < 1000 nM
IC50 [8]: < 100 nM
IC50 [9]: < 100 nM
IC50 [10]: < 100 nM
IC50 [11]: < 100 nM

Cc1cc(N(C)CC(=O)N2CCN(Cc3ccc4c(c3)OCO4)CC2)ccc1Oc1ccc(NC(=O)c2ccc(C(F)(F)F)cc2)cn1 [Example 1503, N-[6-(4-{[2-(4-piperonylpiperazin-1-yl)-2-oxoethyl]methylamino}-2-methylphenoxy)pyridin-3-yl]-4-trifluoromethylbenzamide]
IC50 [1]: < 100 nM
IC50 [2]: < 100 nM
IC50 [3]: < 100 nM
IC50 [4]: < 100 nM
IC50 [5]: < 100 nM
IC50 [6]: < 100 nM
IC50 [7]: < 100 nM
IC50 [8]: < 100 nM
T/C % (relative tumor volume, test group vs control group) [12]: <50%
IC50 [9]: < 100 nM
IC50 [10]: < 100 nM
IC50 [11]: < 100 nM
Daudi (T/C %) cell proliferation suppression activity [13]: <70%
U937 (T/C %) cell proliferation suppression activity [14]: <70%

CCN(CC(=O)N1CCN(Cc2ccc3c(c2)OCO3)CC1)c1ccc(Oc2ccc(NS(=O)(=O)c3ccc(C(F)(F)F)cc3)cn2)c(F)c1 [Example 2712, N-[6-(4-{[2-(4-piperonylpiperazin-1-yl)-2-oxoethyl]ethylamino}-2-fluorophenoxy)pyridin-3-yl]-4-trifluoromethylbenzenesulfonamide]
melting point: 177.8 to 180.1 °C
